Results from patent publication US7932263B2, “Therapeutic treatment” (AstraZeneca AB, priority 2003, dated 2011).

Assays:
Assay type in all cases: in vivo, mouse
[1] = system: apo-E knockout mice fed high-cholesterol diet; experiment: Quantitative analysis of atherosclerotic plaques (Sudan IV stained aortas); conditions: 1 mg/kg/d of each drug, 12 weeks, vs high-cholesterol diet alone
Protocol: Five pairs of C57BL/6J mice and three pairs of homozygous apo-E knockout mice (on C57BL/6J background) were obtained from Jackson Laboratories (Bar Harbor, Me.). They were bred by brother-sister mating and housed in a room lit from 6:00 AM to 6:00 PM and kept at 21° C. The C57BL/6J mice (n=10) were continued on regular diet for the entire study period. The apo-E knockout mice were divided into four groups. Group 1 (n=10) animals were given high-cholesterol diet (1% cholesterol) alone for 12 weeks since the age of 6 weeks; Group 2 (n=10) animals were given high-cholesterol diet with candesartan (1 mg/kg/d) for 12 weeks since the age of 6 weeks; Group 3 (n=10) animals were given high-cholesterol diet with the rosuvastatin (1 mg/kg/d) for 12 weeks since the age of 6 weeks; Group 4 (n=10) animals were given high-cholesterol diet with candesartan (1 mg/kg/d) and rosuvastatin (1 mg/kg/d) for 12 weeks since the age of 6 weeks. At the end of 12-week-treatment, the mice were sacrificed and subject to studies described below. All experimental procedures were performed in accordance with protocols approved by the institutional Animal Care and Usage Committee of University of Arkansas for Medical Sciences. Quantitative Analysis of Atherosclerotic Plaques At the end of 12-week-treatment, 5 mice from each group were euthanized and the aortas were separated from surrounding tissues. After removal of the adventitial fat tissue, the aortas were opened longitudinally from the aorta arch to the iliac bifurcation, and fixed in 10% formalin for 24 hours. Then the aortas were rinsed in 70% alcohol briefly, stained with Sudan IV solution for 15 minutes, differentiated in 80% alcohol for 20 minutes and washed in running water for 1 hour (Russell L. Techniques for studying atherosclerotic lesion, Lab Invest. 1958; 7:42-47). […] The images were analyzed by soft ware (Image Pro Plus, Media Cybernetics). […] Statistical significance was determined in multiple comparisons among independent groups of data in which ANOVA and the F test indicated the presence of significant differences. […]

LOX-1 = LOX-1 expression in aorta by RT-PCR and Western blot; conditions: aorta of apo-E knockout mice, high-cholesterol diet, 1 mg/kg/d of each drug, 12 weeks; vs high-cholesterol diet alone
Protocol: (§1) Five pairs of C57BL/6J mice and three pairs of homozygous apo-E knockout mice (on C57BL/6J background) were obtained from Jackson Laboratories (Bar Harbor, Me.). They were bred by brother-sister mating and housed in a room lit from 6:00 AM to 6:00 PM and kept at 21° C. The C57BL/6J mice (n=10) were continued on regular diet for the entire study period. The apo-E knockout mice were divided into four groups. Group 1 (n=10) animals were given high-cholesterol diet (1% cholesterol) alone for 12 weeks since the age of 6 weeks; Group 2 (n=10) animals were given high-cholesterol diet with candesartan (1 mg/kg/d) for 12 weeks since the age of 6 weeks; Group 3 (n=10) animals were given high-cholesterol diet with the rosuvastatin (1 mg/kg/d) for 12 weeks since the age of 6 weeks; Group 4 (n=10) animals were given high-cholesterol diet with candesartan (1 mg/kg/d) and rosuvastatin (1 mg/kg/d) for 12 weeks since the age of 6 weeks.
(§2) At the end of 12-week-treatment, 5 mice from each group were euthanized and the aortas (from aorta arch to iliac bifurcation) were separated from surrounding tissues and stored on dry ice. Each aorta was cut into four segments, two of which were used to extract total RNA with the single-step acid-guanidinium thiocyanate-phenol-chloroform method as described earlier (27). […]

CD40 = CD40 expression in aorta by RT-PCR and Western blot; conditions: aorta of apo-E knockout mice, high-cholesterol diet, 1 mg/kg/d of each drug, 12 weeks; vs high-cholesterol diet alone
Protocol: as §1, §2

MMP-1 = MMP-1 expression in aorta by RT-PCR and Western blot; conditions: aorta of apo-E knockout mice, high-cholesterol diet, 1 mg/kg/d of each drug, 12 weeks; vs high-cholesterol diet alone
Protocol: as §1, §2

MMP-9 = MMP-9 expression in aorta by RT-PCR and Western blot; conditions: aorta of apo-E knockout mice, high-cholesterol diet, 1 mg/kg/d of each drug, 12 weeks; vs high-cholesterol diet alone
Protocol: as §1, §2

MMP-2 = MMP-2 expression in aorta by RT-PCR and Western blot; conditions: aorta of apo-E knockout mice, high-cholesterol diet, 1 mg/kg/d of each drug, 12 weeks; vs high-cholesterol diet alone
Protocol: as §1, §2

TIMP-2 = TIMP-2 protein expression in aorta by Western blot; conditions: aorta of apo-E knockout mice, high-cholesterol diet, 1 mg/kg/d of each drug, 12 weeks; vs high-cholesterol diet alone
Protocol: (§3) Five pairs of C57BL/6J mice and three pairs of homozygous apo-E knockout mice (on C57BL/6J background) were obtained from Jackson Laboratories (Bar Harbor, Me.). They were bred by brother-sister mating and housed in a room lit from 6:00 AM to 6:00 PM and kept at 21° C. The C57BL/6J mice (n=10) were continued on regular diet for the entire study period. The apo-E knockout mice were divided into four groups. […]
(§4) Each mouse aorta was cut into four segments. […] Membranes were washed and then incubated with 1:5000 dilution specific secondary antibody (Amersham Life Science) for 2 hours at room temperature, and the membranes were washed and detected with the ECL system (Amersham Life Science). The relative intensities of protein bands were analyzed by Scan-gel-it software (Li D Y, Zhang Y C, Sawamura T, Mehta J L. Circ Res. 1999; 84:1043-1049).
(§5) All data represent mean of duplicate samples. […] Statistical significance was determined in multiple comparisons among independent groups of data in which ANOVA and the F test indicated the presence of significant differences. […]

TIMP-1 = TIMP-1 protein expression in aorta by Western blot; conditions: aorta of apo-E knockout mice, high-cholesterol diet, 1 mg/kg/d of each drug, 12 weeks; vs high-cholesterol diet alone
Protocol: as §3, §4, §5

SMILES	decrease of atherosclerosis [1]	LOX-1 expression (mRNA and protein) (LOX-1)	CD40 expression (mRNA and protein) (CD40)	MMP-1 expression (mRNA and protein) (MMP-1)	extent of atherosclerosis (in words) [1]	MMP-9 expression (mRNA and protein) (MMP-9)	MMP-2 expression (mRNA and protein) (MMP-2)	TIMP-2 protein expression (TIMP-2)	TIMP-1 protein expression (TIMP-1)
CCOc1nc2cccc(C(=O)O)c2n1Cc1ccc(-c2ccccc2-c2nnn[nH]2)cc1 [candesartan]	about 35%	–	–	–	–	–	–	–	–
CC(C)c1nc(N(C)S(C)(=O)=O)nc(-c2ccc(F)cc2)c1/C=C/[C@@H](O)C[C@@H](O)CC(=O)O [rosuvastatin]	~25%	decreased the LOX-1 expression (mRNA and protein), albeit modestly	slightly decreased CD40 expression	decreased MMP-1, -2 and -9 expression (mRNA and protein), albeit modestly	decreased the extent of atherosclerosis	decreased MMP-1, -2 and -9 expression (mRNA and protein), albeit modestly	decreased MMP-1, -2 and -9 expression (mRNA and protein), albeit modestly	reduced TIMP-1 and TIMP-2 expression by a small degree	reduced TIMP-1 and TIMP-2 expression by a small degree
